In patent US10653688B2, “6-(6-membered heteroaryl and aryl)isoquinolin-3-yl carboxamides and preparation and use thereof” (Samumed, LLC, priority 2017, dated 2020):

Tests used:
[1] = system: Wnt activity (SW480 colon carcinoma cells stably expressing the Sp5-Luc reporter gene); experiment: Wnt activity screening assay (Sp5-Luc reporter gene assay); assay type: cell-based, human; settings: Homo sapiens, 36 to 48 hours
Method in brief: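 EC50 values come from a variable-slope four-parameter fit of luminescence normalized to DMSO-only wells. The read-out follows 36–48 h incubation at 37 °C, 5% CO2, in DMEM containing 1% fetal bovine serum. Cells are hygromycin-selected SW480 stably expressing firefly luciferase under a Wnt-responsive Sp5 promoter (eight TCF/LEF sites).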

recombinant GSK3β kinase = recombinant GSK3β kinase (Homo sapiens (Human), UniProt P49841); experiment: GSK3β kinase assay (Ser/Thr 09 peptide Z-lyte, FRET); assay type: biochemical; settings: GSK3β kinase; head says EC50, method says IC50; ATP 46 μM;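 note: FRET read-out as coumarin over fluorescein emission ratio, compounds incubated one hour at room temperature, IC50 from dose-response curve fit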
[2] = system: SW480 colon carcinoma cells; experiment: Cell viability assay (CellTiter-Glo); assay type: cell-based, human; settings: Homo sapiens, 96 h, four days, CellTiter-Glo
[3] = system: LL29 cells (primary human fibroblasts derived from IPF patients), α-smooth muscle actin; experiment: Inhibition of fibrotic process: TGF-β1-treated primary human fibroblasts, αSMA staining; assay type: cell-based; settings: Homo sapiens, Fibroblast; for EC50: 96 h, TGF-β1 20 ng/mL, 4 days, % cells positive for αSMA; for inhibition at 10 µM: read-out: percent inhibition at 10 μM (given for EC50 >10 μM), TGF-β1, αSMA, 10 μM;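 for all read-outs here: controls were TGF-β1-stimulated wells with DMSO vehicle as the positive reference and cells given DMSO alone as the negative reference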
[4] = system: IL-6 in human peripheral blood mononuclear cells (huPBMCs); experiment: IL-6 inhibition in LPS-stimulated human peripheral blood mononuclear cells (HTRF); assay type: cell-based; settings: Homo sapiens, PBMC; for EC50: LPS 50 ng/mL, 22 hours, IL-6 HTRF; for inhibition at 10 µM: read-out: percent inhibition at 10 μM (given for EC50 >10 μM), LPS, IL-6, 10 μM
Method in brief: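 Compound-treated huPBMCs (1×10e6 cells/mL, 1% FBS-RPMI) were stimulated after 2 h with LPS (50 ng/mL) for another 22 h at 37° C. An anti-IL-6 HTRF pair reported IL-6 as the 665/620 nm ratio; activity relative to DMSO, EC50 by 4-parameter Levenberg-Marquardt fitting, duplicates.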

[5] = biological target: recombinant DYRK1A kinase (Homo sapiens (Human), UniProt Q13627); experiment: DYRK1A kinase assay (Ser/Thr 18 peptide Z-lyte, FRET); settings: DYRK1A kinase; head says EC50, method says IC50; ATP 30 μM
Protocol: Each compound was dissolved in DMSO as a 10 mM stock and used to prepare compound source plates.
This is a non-radioactive assay using fluorescence resonance energy transfer (FRET) between coumarin and fluorescein to detect kinase activity which is represented as a ratio of coumarin emission/fluorescein emission.
The mixture was allowed to incubate with the representative compounds for one hour at room temperature. All reactions were performed in duplicate. Unphosphorylated (“0% Control”) and phosphorylated (“100% control”) forms of Ser/Thr 18 served as control reactions. Additionally, an 11-point dose-response curve of Staurosporine (luM top) was run to serve as a positive compound control.
After incubation, Development Reagent A was diluted in Development Buffer then added to the reaction and allowed to further incubate for one hour at room temperature.
Dose-response curves were generated and inhibitory concentration (IC50) values were calculated using non-linear regression curve fit in the Dotmatics' Studies Software (Bishops Stortford, UK).

Chain of recombinant GSK3β kinase (P49841 whole entry): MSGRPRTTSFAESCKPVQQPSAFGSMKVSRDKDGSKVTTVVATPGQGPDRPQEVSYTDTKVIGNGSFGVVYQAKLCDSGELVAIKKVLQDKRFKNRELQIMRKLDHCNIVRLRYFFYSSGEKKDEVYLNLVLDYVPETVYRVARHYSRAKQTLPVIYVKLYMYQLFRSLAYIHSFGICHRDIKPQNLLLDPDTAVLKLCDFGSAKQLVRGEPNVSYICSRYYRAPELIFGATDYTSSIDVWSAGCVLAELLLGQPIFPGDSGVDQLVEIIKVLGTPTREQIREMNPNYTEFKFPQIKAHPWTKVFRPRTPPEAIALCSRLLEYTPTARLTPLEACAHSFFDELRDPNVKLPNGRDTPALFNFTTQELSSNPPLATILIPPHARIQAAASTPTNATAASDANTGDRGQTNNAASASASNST

SMILES	EC50 [1] [µM]	EC50 (recombinant GSK3β kinase) [µM]	EC50 [2] [µM]	EC50 [3] [µM]	EC50 [4] [µM]	EC50 [5] [µM]	inhibition at 10 µM [3] [%]	inhibition at 10 µM [4] [%]
CCN(CC)c1cncc(-c2ccc3cnc(NC(=O)c4ccnc(N5CCN(C)CC5)c4)cc3c2)n1 [Compound 121, N-(6-(6-(Diethylamino)pyrazin-2-yl)isoquinolin-3-yl)-2-(4-methylpiperazin-1-yl)isonicotinamide]	1.04	> 10	2.91	0.71	1.91	0.006	–	–
NC1CN(c2cncc(-c3ccc4cnc(NC(=O)c5ccc(F)cc5)cc4c3)n2)C1 [Compound 122, N-(6-(6-(3-aminoazetidin-1-yl)pyrazin-2-yl)isoquinolin-3-yl)-4-fluorobenzamide]	6.19	> 10	8.9	> 10	3.15	0.011	4.8	–
CN1CCN(c2cc(C(=O)Nc3cc4cc(-c5cncc(N6CCCC6)n5)ccc4cn3)ccn2)CC1 [Compound 123, 2-(4-Methylpiperazin-1-yl)-N-(6-(6-(pyrrolidin-1-yl)pyrazin-2-yl)isoquinolin-3-yl)isonicotinamide]	3.57	> 10	8.33	1.04	> 10	0.013	–	20.9
O=C(Nc1cc2cc(-c3cncc(OC4CNC4)n3)ccc2cn1)c1ccc(F)cc1 [Compound 125, N-(6-(6-(Azetidin-3-yloxy)pyrazin-2-yl)isoquinolin-3-yl)-4-fluorobenzamide]	7.27	> 10	7.64	> 10	> 10	0.005	43.6	4.5
CN1CCC(n2cc(C(=O)Nc3cc4cc(-c5cnc6[nH]ccc6c5)ccc4cn3)cn2)CC1 [Compound 126, N-(6-(1H-Pyrrolo[2,3-b]pyridin-5-yl)isoquinolin-3-yl)-1-(1-methylpiperidin-4-yl)-1H-pyrazole-4-carboxamide]	0.098	> 10	0.768	1.45	2.72	0.022	–	–
CN1CCC(n2cc(C(=O)Nc3cc4cc(-c5cnc6cc[nH]c6c5)ccc4cn3)cn2)CC1 [Compound 127, N-(6-(1H-Pyrrolo[3,2-b]pyridin-6-yl)isoquinolin-3-yl)-1-(1-methylpiperidin-4-yl)-1H-pyrazole-4-carboxamide]	0.027	> 10	0.074	0.272	1.56	0.005	–	–
CN1CCC(n2cc(C(=O)Nc3cc4cc(-c5cncc6[nH]ccc56)ccc4cn3)cn2)CC1 [Compound 128, N-(6-(1H-Pyrrolo[2,3-c]pyridin-4-yl)isoquinolin-3-yl)-1-(1-methylpiperidin-4-yl)-1H-pyrazole-4-carboxamide]	0.013	9.07	0.031	0.102	0.678	0.004	–	–
CN1CCN(c2cc(C(=O)Nc3cc4cc(-c5cnc6[nH]ccc6c5)ccc4cn3)ccn2)CC1 [Compound 129, N-(6-(1H-Pyrrolo[2,3-b]pyridin-5-yl)isoquinolin-3-yl)-2-(4-methylpiperazin-1-yl)isonicotinamide]	1.37	> 10	1.17	0.699	3.36	0.018	–	–
CN1CCN(c2cc(C(=O)Nc3cc4cc(-c5cnc6cc[nH]c6c5)ccc4cn3)ccn2)CC1 [Compound 130, N-(6-(1H-Pyrrolo[3,2-b]pyridin-6-yl)isoquinolin-3-yl)-2-(4-methylpiperazin-1-yl)isonicotinamide]	0.378	> 10	0.501	0.941	3.93	0.004	–	–
